Data set [1] deals with CH1 tumor containing xenografts. Kind of data set: In vivo growth delay in CH1 tumor xenografts. The settings on record: administered at maximum tolerated dose. The source says: This is in contrast to the growth delay of 0.6 days, achieved with compound E (FIG. 1).
Data set [2] is described as follows: Aqueous solubility at ambient conditions. It counts as physicochemical. To be noted: for Aqueous Solubility / Ratio to Solubility of bis-butyrato-ammine-(cyclohexylamine)dichloro platinum (IV) / Ratio to Solubility of cis-ammine(2-methylpyridine)Dichloroplatinum (II) / Ratio to Solubility of cisplatin: ambient conditions.
Data set [3] relates to 41M. Kind of data set: Cell proliferation IC50, human cancer cell lines in culture. The class given is cell-based. The settings on record: 41M cell line; for (IC50-Pt(IV)/IC50-Pt(II)): vs cis-amminedichloro(2-methylpyridine)platinum(II); for IC50: read-out: IC50 (50% decrease in cell proliferation). Here is the method:
(§1) Compounds were tested against human cancer cell lines grown in cell culture according to established procedures (described by Holford, et al., British J. Cancer 1998 77(3) 366-373).

Data set [4] concerns 2780R. Described as above. The class given is cell-based. To be noted: for resistance factor: 2780R vs A2780, in brackets; for (IC50-Pt(IV)/IC50-Pt(II)): A2780R cell line, vs cis-amminedichloro(2-methylpyridine)platinum(II); for IC50: read-out: IC50 (50% decrease in cell proliferation), 2780R cisplatin-resistant cell line. Here is the method: as §1
Data set [5] relates to CH1R. Described as above. It counts as cell-based. To be noted: for (IC50-Pt(IV)/IC50-Pt(II)): CH1R cell line, vs cis-amminedichloro(2-methylpyridine)platinum(II); for resistance factor: CH1R vs CH1, in brackets; for IC50: read-out: IC50 (50% decrease in cell proliferation), CH1R cisplatin-resistant cell line. Here is the method: as §1
For data set [6], the system named is A2780. Described as above. It counts as cell-based. To be noted: A2780 cell line; for (IC50-Pt(IV)/IC50-Pt(II)): vs cis-amminedichloro(2-methylpyridine)platinum(II); for IC50: read-out: IC50 (50% decrease in cell proliferation). Here is the method: as §1
Data set [7] relates to CH1. The data set is described as above. The class given is cell-based. To be noted: CH1 cell line; for (IC50-Pt(IV)/IC50-Pt(II)): vs cis-amminedichloro(2-methylpyridine)platinum(II); for IC50: read-out: IC50 (50% decrease in cell proliferation). Here is the method: as §1
Data set [8] has as its system 41MR. The data set is described as above. It counts as cell-based. The settings on record: for (IC50-Pt(IV)/IC50-Pt(II)): 41MR cell line, vs cis-amminedichloro(2-methylpyridine)platinum(II); for resistance factor: 41MR vs 41M, in brackets; for IC50: read-out: IC50 (50% decrease in cell proliferation), 41MR cisplatin-resistant cell line. As for the experimental part: as §1

For data set [9] the following is noted: background statement; cited from earlier work.
Setting [10] is: solubility ratio to cis-amminedichloro(2-methylpyridine)platinum(II).

We go through 10 compounds from patent US6413953B1, “Pt(IV) antitumor agent” (AnorMED Inc., priority 1999, dated 2002).

Like-named read-outs stand apart in the source and are kept apart here. A value given as a limit tells only on which side of the number the result lay.

For the compound `CC(=O)[O][Pt]([OH])([Cl])[O]C(C)=O.Cc1ccccn1.N` [Compound E], the growth delay in data set [1] is 0.6 days. Further, in [2], the “(SolPt(IV)/SolPt(II))” value came out at 21.4, the “Aqueous Solubility” value was determined as 15 mg/mL, the “Ratio to Solubility of bis-butyrato-ammine-(cyclohexylamine)dichloro platinum (IV)” value (from here on “Ratio to Solubility … (IV)”) was 75 and the “Ratio to Solubility of cis-ammine(2-methylpyridine)Dichloroplatinum (II)” value (“Ratio to Solubility … (II)” below) was 21.4. In data set [2], the “Ratio to Solubility of cisplatin” value amounted to 15. Besides, in [3], the “(IC50-Pt(IV)/IC50-Pt(II))” value is reported as 13.9 and the IC50 came out at 78 µM. In data set [4], the resistance factor entry is given as “(5.9)”, the “(IC50-Pt(IV)/IC50-Pt(II))” value is reported as 5.2 and the IC50 amounted to 62 µM. Moreover, in data set [5], the “(IC50-Pt(IV)/IC50-Pt(II))” value amounted to 21.9, the resistance factor result was “(2.6)” and the IC50 was determined as 46 µM. In data set [6], the “(IC50-Pt(IV)/IC50-Pt(II))” value is reported as 4.2 and the IC50 was found to be 10.5 µM. In addition, in data set [7], the “(IC50-Pt(IV)/IC50-Pt(II))” value was determined as 8.2 and the IC50 stood at 18 µM. Also, in data set [8], the “(IC50-Pt(IV)/IC50-Pt(II))” value is reported as 13, the resistance factor entry was “(1)” and the IC50 stood at 78 µM.

Turning to `CC(=O)[O][Pt]([NH2])([Cl])([Cl])([NH]C1CCCCC1)[O]C(C)=O` [Compound F, bis-acetatoammine(cyclohexylamine)dichloroplatinum(IV), reference compound], in data set [2], the “Aqueous Solubility” value is less than 1 mg/mL, the “Ratio to Solubility … (IV)” value is less than 5, the “Ratio to Solubility … (II)” value is recorded as less than 1.4 and the “Ratio to Solubility of cisplatin” value was less than 1. Moreover, the IC50 in [3] worked out at 0.5 µM. Also, in data set [4], the resistance factor result is recorded as “(4.6)” and the IC50 worked out at 1.84 µM. For the same compound, in [5], the resistance factor entry is “(4)” and the IC50 worked out at 0.4 µM. The IC50 in data set [6] worked out at 0.4 µM. Also, in data set [8], the resistance factor entry is “(1.2)” and the IC50 was 0.6 µM.

“ammine(chloro)trihydroxo(2-methylpyridine)platinum(IV) [Compound A]”: the growth delay in data set [1] was 32.8 days. Also, the “(IC50-Pt(IV)/IC50-Pt(II))” value was determined as 4.5 in data set [3]; 3.4 in data set [4]; 5.7 in data set [5]; 3.8 in data set [6]; 2.7 in [7]; 7.5 in [8]. The IC50 in data set [3] came out at 25 µM; in [4] it was 41 µM; in data set [5], 12 µM; in data set [6] it was 9.5 µM; in data set [7] it was 6 µM; in data set [8], 45 µM. Further, the resistance factor entry in data set [4] is “(4.3)”; in data set [5], “(2)”; in data set [8], “(1.8)”.

As to `N.N.[Cl][Pt][Cl]` [cisplatin, [PtCl2(NH3)2], reference compound], the growth delay in [1] is on record as 34 days. In addition, the IC50 is 0.26 µM in data set [3]; 5.2 µM in [4]; 0.71 µM in [5]; 0.33 µM in data set [6]; 0.11 µM in data set [7]; 1.2 µM in [8]. Also, the figures for the resistance factor entry in [4], in [5] and in data set [8] were “(15.7)”, “(6.5)” and “(4.6)”, respectively.

Take `Cc1cccc[n+]1[Pt-2]([NH3+])([OH])([OH])([Cl])[Cl]` [Compound B]: in [2], the “Aqueous Solubility” value is given as “˜5 mg/ml”. Moreover, the “Ratio to Solubility … (IV)” value in data set [2] was 25. The “Ratio to Solubility … (II)” value in [2] amounted to 7.1. Also, the “Ratio to Solubility of cisplatin” value in [2] is given as 5. In addition, the “(SolPt(IV)/SolPt(II))” value in data set [2] (setting [10]) was 7.1. Besides, the “(IC50-Pt(IV)/IC50-Pt(II))” value in data set [3] came out at 1.8; in data set [4], 3.0; in [5] it was 3.5; in data set [6] it was 1.8; in data set [7] it was 1.5; in [8] it was 3.2. Besides, the IC50 in data set [3] came to 10 µM; in [4], 36 µM; in data set [5] it was 7.4 µM; in data set [6] it was 4.5 µM; in data set [7], 3.4 µM; in [8], 19 µM. In addition, the resistance factor result is given as “(8)” in [4], “(2.2)” in data set [5] and “(1.9)” in data set [8].

Regarding `CC(=O)[O][Pt]([OH])([Cl])[O]C(C)=O.Cc1ccccn1.N` [Compound C], in data set [2], the “Aqueous Solubility” value came to 20 mg/mL, the “Ratio to Solubility … (IV)” value came out at 100, the “Ratio to Solubility … (II)” value was 28.6 and the “Ratio to Solubility of cisplatin” value was determined as 20. Besides, the “(SolPt(IV)/SolPt(II))” value in data set [2] (setting [10]) is on record as 28.6. In data set [3], the “(IC50-Pt(IV)/IC50-Pt(II))” value turned out to be 4.8 and the IC50 is 27 µM. In data set [4], the resistance factor entry is given as “(5.2)”, the “(IC50-Pt(IV)/IC50-Pt(II))” value turned out to be 3.8 and the IC50 amounted to 45 µM. Further, in [5], the “(IC50-Pt(IV)/IC50-Pt(II))” value is given as 8.1, the resistance factor result is recorded as “(1.8)” and the IC50 stood at 17 µM. Further, in data set [6], the “(IC50-Pt(IV)/IC50-Pt(II))” value turned out to be 3.4 and the IC50 turned out to be 8.6 µM. For the same compound, in data set [7], the “(IC50-Pt(IV)/IC50-Pt(II))” value is listed as 3.9 and the IC50 is 8.6 µM. Further, in [8], the “(IC50-Pt(IV)/IC50-Pt(II))” value was found to be 4.3, the resistance factor entry was “(0.96)” and the IC50 is 26 µM.

Turning to `Cc1ccccn1.N.[Cl-].[Cl-].[Pt+2]` [cis-ammine(2-methylpyridine)dichloroplatinum(II), reference compound], the “Aqueous Solubility” value in [2] is 0.7 mg/mL. Also, the “Ratio to Solubility … (IV)” value in data set [2] was determined as 3.5. Besides, the “Ratio to Solubility … (II)” value in data set [2] is 1. In addition, in [2], the “Ratio to Solubility of cisplatin” value is 0.7. In addition, the IC50 in data set [3] was found to be 5.6 µM; in data set [4], 12 µM; in [5], 2.1 µM; in data set [6], 2.5 µM; in [7], 2.2 µM; in data set [8] it was 6 µM. In addition, the resistance factor result is listed as “(4.8)” in data set [4], “(1)” in data set [5] and “(1.1)” in data set [8].

Regarding `[NH2][Pt]1([NH2])[O]C(=O)C2(CCC2)C(=O)[O]1` [carboplatin, diammine[1,1-cyclobutanedicarboxylato (2-)]-O,O′-platinum(II), reference compound], the “Aqueous Solubility” value in data set [2] and in [9] was 14 mg/mL throughout. Further, the “Ratio to Solubility … (IV)” value in data set [2] worked out at 70. For the same compound, the “Ratio to Solubility … (II)” value in data set [2] turned out to be 20. For the same compound, the “Ratio to Solubility of cisplatin” value in data set [2] worked out at 14. Further, the IC50 in data set [3] was determined as 3.3 µM; in data set [4] it was 25.9 µM; in data set [5], 6 µM; in data set [6] it was 1.8 µM; in data set [7], 1.3 µM; in data set [8] it was 8.8 µM. Further, the resistance factor result was “(14.4)” in data set [4], “(4.5)” in [5] and “(2.7)” in [8].

Take `CCCC(=O)[O][Pt]([NH2])([Cl])([Cl])([NH]C1CCCCC1)[O]C(=O)CCC` [Compound G, bis-butyratoammine(cyclohexylamine)dichloroplatinum(IV), reference compound]: the IC50 worked out at 0.072 µM in data set [3], 0.024 µM in data set [5], 0.0066 µM in data set [7] and 0.048 µM in [8]. Further, the resistance factor entry in data set [5] is recorded as “(3.7)”; in [8] it was “(0.67)”.

`CC(=O)[O][Pt]([Cl])([O]C(C)=O)[O]C(C)=O.Cc1ccccn1.N` [Compound D]: in data set [2], the “Aqueous Solubility” value was determined as 80 mg/mL. In addition, the IC50 is more than 100 µM in [3]; more than 100 µM in [4]; 88 µM in data set [5]; 47 µM in data set [6]; 46 µM in data set [7]; more than 100 µM in [8]. The resistance factor result in [5] was “(1.9)”.

The Aqueous Solubility is the concentration that dissolves in the medium under given conditions.
